{
  "source": "patent US10836793B2",
  "about": "“Compounds for the treatment of neurodegenerative diseases” (University of South Florida, priority 2018, dated 2020)",
  "key": {"[1]": {"target": "T1, Aβ42 (Homo sapiens, UniProt P05067)", "T1 construct": "and 42 amino acids in length (Aβ42)", "T1 sequence (P05067 672-713 limits assumed)": "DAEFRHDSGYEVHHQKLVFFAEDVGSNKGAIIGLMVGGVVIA", "assay": "Thioflavin T (ThT) spectroscopic assay of Aβ42 aggregation", "format": "biochemical", "details": "1, 5 and 10 μM HW-C-9; Aβ42 5 μM; 37° C.; FIG. 4", "protocol": "(§1) The effect of HW-C-9 on Aβ42 was analyzed using the Thioflavin T (ThT) spectroscopic assay. Thioflavin T (ThT) is a benzothiazole salt obtained by the methylation of dehydrothiotoluidine with methanol in the presence of hydrochloric acid. ThT was used as a dye to visualize and quantify the presence or fibrilization of misfolded protein aggregates. Briefly, HW-C-9 in Tris Buffered Saline (TBS, pH 7.5) containing 10 μM ThT was added into a black 96 well plate. Aβ42 protein monomer was freshly thawed and used to make a stock 5 μM solution in TBS. An equal volume of Aβ42 solution was added to each well to a final concentration of 2.5 μM Aβ42 and incubated at 37° C. Time-dependent fluorescence change was monitored by a Synergy 2 plate reader at an excitation wavelength of 440 nm and emission at 482 nm. The fluorescence intensity of ThT was measured over time, as ThT changed fluorescence intensity upon binding to the Aβ42 protein aggregates. 100% aggregation was defined as the fluorescence change of 2.5 μM Aβ42 in TBS buffer containing 5 μM ThT after 24 hours.\nIn FIG. 4, C1 is 1 μM of HW-C-9, C3 is 5 μM of HW-C-9, and C4 is 10 μM of HW-C-9. Aβ42 was present in all samples at a concentration of 5 μM. The top curve (red line, “Agg”) is the Aβ42-only control."}, "[2]": {"system": "recombinant human tau protein", "assay": "ThT assay of tau protein aggregation", "format": "biochemical", "details": "100, 50, 20, 10 and 1 μM HW-C-9; Tau 10 μM; FIG. 5", "protocol": "as §1\nThe effect of HW-C-9 on recombinant human tau protein was analyzed using the ThT assay, as detailed in Example 2, but with tau protein in place of Aβ42. In FIG. 5, C1 is 100 μM of HW-C-9, C2 is 50 μM of HW-C-9, C3 is 20 μM of HW-C-9, C4 is 10 μM of HW-C-9, and C5 is 1 μM of HW-C-9. […]"}, "[3]": {"target": "T1, Aβ42", "assay": "Western blot of Aβ42 aggregation", "format": "biochemical", "details": "40 μM HW-C-9 and 20 μM Aβ; FIG. 6A", "protocol": "(§2) Shown in FIG. 6A is a Western blot of Aβ42, wherein lane 1 is 20 μM of Aβ, lane 2 is 40 μM of HW-155-1 as a control and 20 μM of Aβ, and lane 3 is 40 μM of HW-C-9 and 20 μM of Aβ. Shown in FIG. 6B on the left is mouse brain tissue incubated overnight with and without 25 μM of HW-C-9, and then immunohistochemically stained with Aβ42 antibodies. On the right of FIG. 6B is a graphical quantification of the density and strength of the antibody stains."}, "[4]": {"system": "Aβ42 amyloid plaques in mouse brain tissue", "assay": "Mouse brain tissue incubated with compound, immunohistochemical staining with Aβ42 antibodies", "details": "mouse brain tissue incubated overnight with 25 μM HW-C-9; FIG. 6B", "protocol": "as §2"}, "[5]": {"target": "human recombinant alpha-synuclein (Homo sapiens, UniProt P37840)", "assay": "Western blot of alpha-synuclein aggregation", "format": "biochemical", "details": "aggregated for 7 days in the presence of 25 μg/mL HW-C-9; FIG. 7", "protocol": "The effect of HW-C-9 on synuclein was analyzed with a Western blot. Results are shown in FIG. 7, wherein lane 1 is human recombinant alpha-synuclein (stained with goat anti-human alpha-synuclein antibody) without aggregation as a control, lane 2 is human recombinant alpha-synuclein (stained with goat anti-human alpha-synuclein antibody) aggregated for 7 days, and lane 3 is human recombinant alpha-synuclein (stained with goat anti-human alpha-synuclein antibody) aggregated for 7 days in the presence of 25 μg/mL of HW-C-9."}},
  "data": [
    {"smiles": "C=CCOC(=O)N(CC(=O)N[C@@H](Cc1ccccc1)CN(CC(=O)N[C@@H](CCCCN)CN(CC(=O)N[C@@H](CC(C)C)CN(CC(=O)NCCCCCCCC(=O)NCCCC[C@H](NC(=O)CCCCCCCNC(=O)CN(C[C@H](CC(C)C)NC(=O)CN(C[C@H](CCCCN)NC(=O)CN(C[C@H](Cc1ccccc1)NC(=O)CN(C[C@@H](N)CCCCN)C(=O)OCC=C)C(=O)CCc1ccccc1)C(=O)CC(C)C)C(=O)CC(C)C)C(N)=O)C(=O)CC(C)C)C(=O)CC(C)C)C(=O)CCc1ccccc1)C[C@@H](N)CCCCN", "note": "[HW-C-9]", "values": [
      {"measurement": "inhibition of Aβ42 aggregation (ThT fluorescence)", "setting": "[1]", "value": "can inhibit Aβ42 aggregation at all concentrations tested"},
      {"measurement": "inhibition of tau protein aggregation (ThT fluorescence)", "setting": "[2]", "value": "can inhibit aggregation of tau protein at all concentrations tested"},
      {"measurement": "inhibition of Aβ42 aggregation (Western blot)", "setting": "[3]", "value": "can inhibit aggregation of Aβ42"},
      {"measurement": "removal of amyloid plaques (density and strength of Aβ42 antibody stains)", "setting": "[4]", "value": "remove amyloid plaques"},
      {"measurement": "inhibition of alpha-synuclein aggregation (Western blot)", "setting": "[5]", "value": "can inhibit aggregation of alpha-synuclein"}
    ]}
  ]
}
